Measured values as given in patent US12583939B2, “Bispecific antigen binding molecules that bind HER2, and methods of use thereof” (Regeneron Pharmaceuticals, Inc., priority 2020, dated 2026).

How the values were obtained:
[1] = biological target: T1, hErbB2-MMH (Homo sapiens, UniProt P04626); assay: Surface plasmon resonance binding kinetics at 25° C.
T1 construct: myc-myc-hexahistidine (C); made in house
Procedure: Equilibrium dissociation constants (KD values) for hErbB2.mmh binding to anti-HER2×HER2 antibodies conjugated with either M830 or M1 were determined using a real-time surface plasmon resonance biosensor assay on a MASS-2 instrument. The MASS-2 sensor surface was derivatized by amine coupling with a monoclonal mouse anti-human Fc antibody (REGN2567) to capture anti-HER2×HER2 ADC and parent unmodified antibodies expressed with human constant regions. […] Human hErbB2 was prepared in-house expressing a C-terminal myc-myc-hexahistidine tag (hErbB2-MMH). […] Association of hErbB2-MMH to each of the captured ADCs and monoclonal antibodies was monitored for 3 minutes. Subsequently, hErbB2-MMH dissociation was monitored for 10 minutes in HBS-EP running buffer. Anti-human Fc surface was regenerated by a brief injection of 20 mM H3PO4. All binding kinetic experiments were performed at 25° C.
Kinetic association (ka) and dissociation (kd) rate constants were determined by fitting the real-time sensorgrams to a 1:1 binding model using Scrubber 2.0c curve fitting software. All sensorgrams were double referenced by subtracting buffer injection sensorgram signal from the corresponding analyte sensorgram, thereby removing artifacts caused by dissociation of the antibody from the capture surface. Binding dissociation equilibrium constants (KD) and dissociative half-lives (t½) were calculated from the kinetic rate constants as: […]

[2] = test system: T47D cells; assay: Internalization and cluster formation, 2D monolayers; assay type: cell-based; settings: 2D monolayers (SD53); 10 ug/mL
Procedure: (§1) For 2D monolayer assays, T47D cells were plated on collagen-coated 96-well optical plates (Greiner, Cat #655936) at 25,000 cells/well in complete media and incubated overnight at 37° C. in 5% CO2. For 3D spheroids, cells were plated in low adhesion 96-well plates (Corning #4515) at 10,000 cells/well and incubated for 72 hours. The day of the assay, cells were incubated for 30 minutes with cold (4° C.) media containing 10 ug/mL of Alexa647 (Thermo, Cat #A37573) labeled antibodies. After, cells were washed twice (5 minutes, 100 ul, 4° C., complete medium) and incubated in complete media at 37° C. for 60 minutes. Cells were incubated for 30 minutes with cold (4° C.) media containing 4 ug/mL of Alexa488 anti-Human Fab (Jackson #109-547-003). […] After, the solution was replaced with PBS. Images were acquired with a Zeiss Spinning Disc Confocal Microscope and analyzed using Zeiss Zen Blue software. Quantification of the number of intracellular vesicles and surface clusters was performed in single confocal sections of representative images.

[3] = test system: T47D cells; assay: Internalization and cluster formation, 3D spheroids; assay type: cell-based; settings: 3D Spheroids (SD55); 10 ug/mL
Procedure: as §1

## CompAb2: parental HER2×HER2 bispecific antibody of MEDI4276 (SEQ ID NO: 52 and 53) [reference compound]
[1]
  Antigen Bound: 177.8 RU
  ka: 290000 M⁻¹ s⁻¹
  kd: ≤1e-05 s⁻¹
[2]
  Cluster %: 28%
  Internalized Vesicles %: 100%
[3]
  Cluster %: 41%
  Internalized Vesicles %: 100%
